Paper PMC4245125, “Pharmacological and Behavioral Characterization of D-473, an Orally Active Triple Reuptake Inhibitor Targeting Dopamine, Serotonin and Norepinephrine Transporters” (PLoS ONE, 2014)

What was measured:
[1] = system: GABA A; experiment: NIMH PDSP receptor binding, GABA A; settings: [3H]Muscimol
[2] = molecular target: T1, Beta2 (Homo sapiens, UniProt P07550); experiment: NIMH PDSP receptor binding, Beta2; settings: [125I]Iodopindolol, read-out: % Inhibition of Binding at 10 µM D-473
T1 construct: purchased NIMH PDSP
T1 sequence (P07550 whole entry): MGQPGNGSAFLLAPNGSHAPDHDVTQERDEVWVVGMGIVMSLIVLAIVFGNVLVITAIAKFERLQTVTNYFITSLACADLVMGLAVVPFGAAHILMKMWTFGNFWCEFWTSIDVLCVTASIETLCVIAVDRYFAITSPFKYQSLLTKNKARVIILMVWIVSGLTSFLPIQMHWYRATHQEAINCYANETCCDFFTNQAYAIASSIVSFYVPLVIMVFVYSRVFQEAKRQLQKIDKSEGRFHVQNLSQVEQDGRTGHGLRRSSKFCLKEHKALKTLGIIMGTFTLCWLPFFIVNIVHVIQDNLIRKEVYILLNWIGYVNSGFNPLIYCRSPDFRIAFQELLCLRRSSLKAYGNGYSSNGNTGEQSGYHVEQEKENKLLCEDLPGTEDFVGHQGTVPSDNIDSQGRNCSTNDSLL

[3] = system: extracellular DA, 5-HT, NE and metabolites in the dorsal lateral striatum (DLS); experiment: Microdialysis in dorsal lateral striatum, monoamines and metabolites; assay type: in vivo, rat; settings: 10 mg/kg i.p.
Experimental: Adult male Sprague-Dawley rats (Harlan, Indianapolis, IN) weighing between 250 and 350 g were used for all experiments. Rats were housed in a temperature and humidity controlled room with 12 hr light/dark cycles with food and water available ad libitum. Adequate measures were taken to prevent animal pain and discomfort. All animals were treated as approved by the University of Michigan Unit for Laboratory Animal Medicine (ULAM) and in accordance with the National Institute of Health (NIH) Guidelines for the Care and Use of Laboratory Animals.
Rats were anesthetized with using an isoflurane vaporizer that was interfaced to a model 963 Ultra Precise stereotaxic instrument with 0.1 mm resolution (David Kopf Instruments, Tujunga, CA). Concentrically designed microdialysis probes (1 mm dialyzing length) were built in house then implanted bilaterally into the dorsal lateral striatum (DLS) and the medial prefrontal cortex (mPFC) according to the following coordinates from bregma and dura (in mm): AP +1, ML +3.3, DV –5.7 and AP +3, ML −0.5, DV −5, respectively (Paxinos and Watson, 2007). […] 1 mm probes were selected for higher spatial resolution and lower tissue damage compared to larger probes. Probes were secured to the skull by acrylic dental cement and metallic screws. Following surgery, rats were allowed to recover and experiments were run 24 hr after probe implantation. Microdialysis probes were flushed at a flow rate of 2 µl/min with aCSF (composition in mM: CaCl2 1.2; KCl 2.7, NaCl 148 and MgCl2 0.85) for 2 hr using a Chemyx Fusion 400 syringe pump (Chemyx, Stafford, TX). Perfusion flow rate was then reduced to 1 µl/min and samples were collected every 10 min. Baseline values were collected for 50 min and then the drug D-473 was injected (10 mg/kg, i.p.) and samples were collected for an additional 2 h. When experiments were completed, animals were euthanized and then brains were extracted and frozen at −80°C until histology.
Dopamine, norepinephrine (NE), serotonin (5HT), DOPAC, homovanillic acid (HVA) and 5-hydroxyindole acetic acid (5-HIAA) were analyzed using a benozyolation derivitization LC-MS method recently described by our laboratory. Briefly, 10 µl dialysate samples were derivatized by adding 5 µl of 100 mM sodium tetraborate, 5 µl of 2% benzoyl chloride in acetonitrile, and then 5 µl of a stable ^13C benzoylated isotope internal standard mixture was then added to improve quantitation. A Thermo Fisher Accela UHPLC (Waltham, MA) system automatically injected 5 µl of the sample onto a Waters (Milford, MA) HSS T3 reverse phase HPLC column (1 mm X 100 mm, 1.8 µm). Mobile phase A consisted of 10 mM ammonium formate and 0.15% formic acid. Mobile phase B was pure acetonitrile. Analytes were detected by an Thermo Fisher TSQ Quantum Ultra triple quadrupole mass spectrometer operating in multiple reaction monitoring (MRM) mode. The assay limits of detection were (nM in dialysate) for DA, 0.3; NE, 0.2; 5HT, 0.1; HVA, 0.5; DOPAC, 2; and 5HIAA, 5. […] Average standard deviation in above basal levels was 18%.
All neurochemical data were transformed into percent baseline with baseline values all averaging 100%. Statistical analysis was performed by t-test analysis of every point relative to baseline values (i.e. 100%) using Prism 6 (Graphpad Software Inc, La Jolla, CA). P values <0.05 were considered to be statistically significant.

In the case of `COc1ccc(CN[C@@H]2CO[C@H](C(c3ccc(F)cc3)c3ccc(F)cc3)C[C@H]2O)cc1` [Compound D-473, (2S,4R,5R)-2-(bis(4-fluorophenyl)methyl)-5-((4-methoxybenzyl)amino)tetrahydro-2H-pyran-4-ol], the “% Inhibition of Binding at 10 µM D-473” value [1] is reported as 5.1%, the inhibition at 10 µM [2] is reported as -4.4% and the “Elevation of 5-HT over the basal level” value [3] is reported as > 4 fold. For the same compound, the “Increase in DA” value [3] was 2 fold, the “Increase in NE” value [3] was 2 fold and the “Reduction of DOPAC, maximal” value [3] was 35–40%. For the same compound, the “Reduction of HVA, maximal” value [3] was 20%, the “Extracellular 5-HT at the end of two hours, percent baseline” value ([3]; baseline 100%) was 215% and the “Extracellular 5-HT, maximal, percent baseline” value ([3]; baseline 100%) was 403%. For the same compound, the “Extracellular DA at the end of two hours, percent baseline” value ([3]; baseline 100%) was 129%, the “Extracellular DA, maximal, percent baseline” value ([3]; baseline 100%) was 274% and the “Extracellular NE at the end of two hours, percent baseline” value ([3]; baseline 100%) was 142%. The “Extracellular NE, maximal, percent baseline” value ([3]; baseline 100%) was 238%.
